# Laboratory results taken from patent publication US9249123B2, “Pyridinones/pyrazinones, method of making, and method of use thereof” (Genentech, Inc., priority 2010, dated 2016).
# Test system: CD86 surface expression on CD19+/7AAD- total mouse splenocytes stimulated with IgM
# Assay: CD86 Inhibition Assay
# Format: cell-based
# Conditions: Splenocyte; Balb/c mouse splenocytes, IgM stimulation, 24 hr
# Procedure: A CD86 Inhibition assay can be conducted on Formula I compounds for the inhibition of B cell activity using total mouse splenocytes purified from spleens of 8-16 week old Balb/c mice (Example 905).
# A generalized procedure for a standard assay for the inhibition of B cell activity that can be used to test Formula I compounds is as follows. Total mouse splenocytes are purified from spleens of 8-16 week old Balb/c mice by red blood cell lysis (BD Pharmingen #555899). Testing compounds are diluted to 0.5% DMSO and incubated with 1.25×10^6 splenocytes in a final volume of 200 μl in flat clear bottom plates (Falcon 353072) for 60 min at 37° C. Cells are then stimulated with the addition of 15 μg/ml IgM (Jackson ImmunoResearch 115-006-020), and incubated for 24 hr at 37° C., 5% CO2. Following the 24 hr incubation, cells are transferred to conical bottom clear 96-well plates and pelleted by centrifugation at 1200×g×5 min. Cells are preblocked by CD16/CD32 (BD Pharmingen #553142), followed by triple staining with CD19-FITC (BD Pharmingen #553785), CD86-PE (BD Pharmingen #553692), and 7AAD (BD Pharmingen #51-68981E). Cells are sorted on a BD FACSCalibur and gated on the CD19^+/7AAD^− population. The levels of CD86 surface expression on the gated population is measured versus test compound concentration. Exemplary results are in Table 3.
row,EC50 [nM],SMILES
1,149,"Cn1cc(-c2cccc(N3Cc4cc(C(C)(C)C)sc4C3=O)c2CO)cc(Nc2cc3n(n2)CCOC3)c1=O [Compound 154, 5-(3-{2-tert-butyl-6-oxo-4H,5H,6H-thieno[2,3-c]pyrrol-5-yl}-2-(hydroxymethyl)phenyl)-1-methyl-3-{4H,6H,7H-pyrazolo[3,2-c][1,4]oxazin-2-ylamino}-1,2-dihydropyridin-2-one]"
2,306,"Cn1cc(-c2cccc(N3Cc4cc(C(C)(C)C)sc4C3=O)c2CO)nc(Nc2ccc(C3CCNCC3)cc2)c1=O [Compound 152, 5-(3-{2-tert-butyl-6-oxo-4H,5H,6H-thieno[2,3-c]pyrrol-5-yl}-2-(hydroxymethyl)phenyl)-1-methyl-3-{[4-(piperidin-4-yl)phenyl]amino}-1,2-dihydropyrazin-2-one]"
3,229,"Cc1cc(Nc2cc(-c3cccc(N4Cc5cc(C(C)(C)C)sc5C4=O)c3CO)cn(C)c2=O)n[nH]1 [Compound 157, 5-(3-{2-tert-butyl-6-oxo-4H,5H,6H-thieno[2,3-c]pyrrol-5-yl}-2-(hydroxymethyl)phenyl)-1-methyl-3-[(5-methyl-1H-pyrazol-3-yl)amino]-1,2-dihydropyridin-2-one]"
4,28.9,"CN1CCN(c2ccc(Nc3cc(-c4cccc(N5Cc6cc(C(C)(C)C)sc6C5=O)c4CO)cn(C)c3=O)nc2)CC1 [Compound 146, 5-(3-{2-tert-butyl-6-oxo-4H,5H,6H-thieno[2,3-c]pyrrol-5-yl}-2-(hydroxymethyl)phenyl)-1-methyl-3-{[5-(4-methylpiperazin-1-yl)pyridin-2-yl]amino}-1,2-dihydropyridin-2-one]"
5,775,"Cn1cc(-c2ccc(F)c(N3Cc4cc(C(C)(C)C)sc4C3=O)c2CO)cc(Nc2ccncn2)c1=O [Compound 141, 5-(3-{2-tert-butyl-6-oxo-4H,5H,6H-thieno[2,3-c]pyrrol-5-yl}-4-fluoro-2-(hydroxymethyl)phenyl)-1-methyl-3-(pyrimidin-4-ylamino)-1,2-dihydropyridin-2-one]"
6,498,"Cc1c(-c2cn(C)c(=O)c(Nc3ccc(C4C(=O)N(C)CCN4C)cc3)n2)cccc1N1Cc2cc(C(C)(C)C)ccc2C1=O (centres unmarked) [Compound 127, 5-tert-butyl-2-[3-(6-{[4-(1,4-dimethyl-3-oxopiperazin-2-yl)phenyl]amino}-4-methyl-5-oxo-4,5-dihydropyrazin-2-yl)-2-methylphenyl]-2,3-dihydro-1H-isoindol-1-one]"
7,154,"Cn1cc(-c2cccc(N3Cc4cc(C(C)(C)C)ccc4C3=O)c2CO)cc(Nc2ccc(C3CNC3)cn2)c1=O [Compound 117, 2-(3-(5-(5-(azetidin-3-yl)pyridin-2-ylamino)-1-methyl-6-oxo-1,6-dihydropyridin-3-yl)-2-(hydroxymethyl)phenyl)-5-tert-butylisoindolin-1-one]"
8,113,"Cn1cc(-c2cccc(N3Cc4cc(C(C)(C)C)ccc4C3=O)c2CO)nc(Nc2cnn(C3CC3)c2)c1=O [Compound 109, 5-tert-butyl-2-(3-(6-(1-cyclopropyl-1H-pyrazol-4-ylamino)-4-methyl-5-oxo-4,5-dihydropyrazin-2-yl)-2-(hydroxymethyl)phenyl) isoindolin-1-one]"
